Measurements from patent publication US20080262097A1, “Formulations” (priority 2005, published 2008).
≈ marks a conversion by molar mass, not a printed value.

Key:
[1] = system: P. acnes NCTC 737; assay: Disc diffusion assay (DDA); type: cell-based, Propionibacterium acnes; conditions: Table 11 (Example 9), 200 μg per disc, mean of three replicates
Procedure: (§1) 2. Propionibacterium spp.—the principal propionibacterial strain used in these studies was Propionibacterium acnes NCTC 737.
(§2) The Propionibacterium spp organisms were cultured and maintained on Wilkins-Chalgren Anaerobe Medium (agar and broth) at pH 6.0; cultures were incubated anaerobically at 37° C. for 72 hours.
A sterile paper disc was impregnated with a sample of the test compound and a minimum of 30 minutes allowed for the solvents to evaporate as far as possible. The disc was then placed on an agar plate onto which the test micro-organism had been inoculated. The plate was then incubated under the conditions described above, following which it was examined visually for signs of bacterial growth. […] The diameter of this zone of “inhibition” was measured using a ProtoCOL™ automated zone sizer (Synbiosis, Cambridge, UK).
The area of the zone of inhibition was calculated from the measured zone diameter (D) using the formula π(D/2)^2.
(§3) For all (S)DDA assays, 200 μg of each compound was loaded onto each disc.

[2] = system: P. acnes NCTC 737; assay: Synergy disc diffusion assay (SDDA); type: cell-based, Propionibacterium acnes; conditions: for SDDA area increase / SDDA increase: peroxide + TBHQ; for SDDA area increase: over larger single-compound zone; for SDDA increase: over larger single-compound zone diameter; for SDDA with TBHQ: peroxide combined with TBHQ on one disc, 200 μg of each
Procedure: as §1, §2
This is a variation on the DDA method, in which two compounds are tested together for their combined antimicrobial activity. It provides a qualitative indication as to whether the compounds are likely to interact synergistically.
Two test compounds A and B were placed on a single paper disc and the above described DDA procedure repeated.
Each of the quinones was then subjected, in combination with BP, to the SDDA assay described above.
as §3

[3] = system: S. aureus ATCC 29213; assay: MIC assay; type: cell-based, Staphylococcus aureus; conditions: S. aureus ATCC 29213; Table 1 (Example 1)
Procedure: 1. Staphylococcus aureus—the principal staphylococcal test micro-organism used in these studies was Staphylococcus aureus ATCC 29213. This strain is the one recommended for QC/QA purposes in Minimum Inhibitory Concentration (MIC) assays by the US Clinical and Laboratory Standards Institute (formerly the NCCLS), an FDA-recognised body. […] The staphylococci and enterococci were cultured and maintained on Mueller-Hinton Medium (agar and broth) at pH 7.2; they were incubated aerobically at 37° C. for 24 hours. This is a standard international method for quantitatively assessing the antimicrobial activity of a compound in a liquid medium. The method used a 96-well microtitre plate, capable of holding about 200 μl of liquid per well. […] The culture media were as described above for the relevant test organisms. The wells were inoculated with a liquid suspension of freshly grown micro-organism and incubated under the conditions described above. After incubation, the microtitre plate was examined visually (with the aid of a light box) for cell pellets in and/or opaque wells, which would indicate microbial growth. The MIC value was recorded as the lowest concentration of test compound required to inhibit microbial growth, ie, the lowest concentration for which the liquid in the well remained clear. The assays were conducted in duplicate and included both negative (culture medium only) and positive (culture medium, diluting solvent and inoculum) controls.

[4] = system: S. aureus ATCC 29213; assay: Supplemented disc diffusion assay (DDA + salt, lipid or blood); type: cell-based, Staphylococcus aureus; conditions: 200 μg per disc (thymoquinone 50 μg); for DDA + blood: agar supplemented with blood; for DDA + lipid: agar supplemented with lipid; for DDA + salt: agar supplemented with salt
Procedure: The staphylococci and enterococci were cultured and maintained on Mueller-Hinton Medium (agar and broth) at pH 7.2; they were incubated aerobically at 37° C. for 24 hours. A sterile paper disc was impregnated with a sample of the test compound and a minimum of 30 minutes allowed for the solvents to evaporate as far as possible. The disc was then placed on an agar plate onto which the test micro-organism had been inoculated. The plate was then incubated under the conditions described above, following which it was examined visually for signs of bacterial growth. If the test compound had antimicrobial activity, a circular zone of no growth would be obtained around the disc. The diameter of this zone of “inhibition” was measured using a ProtoCOL™ automated zone sizer (Synbiosis, Cambridge, UK). In general, a greater diameter and/or area of the zone of inhibition indicates a greater antimicrobial activity in the relevant test compound, although other factors such as test compound mobility through the agar gel may also influence the result. Either the DDA or the SDDA tests may be carried out using an agar gel supplemented with blood, lipid and/or salt to simulate some of the major components present in human skin and to assess whether these substances might reduce the antimicrobial activity observed for the test compounds. Performance under these conditions can provide a more reliable indication of activity on topical application. […] MIC, MBC and DDA assays, as described above, were carried out using the test compound benzoyl peroxide (BP) and a range of different benzoquinones and hydroquinones. Supplemented DDA assays, in the presence of salt, lipid and blood, were also conducted. […] The exceptions were the thymoquinone assays, in which only 50 μg of the benzoquinone was used.

[5] = system: S. aureus ATCC 29213; assay: MBC assay; type: cell-based, Staphylococcus aureus; conditions: S. aureus ATCC 29213; Table 1 (Example 1)
Procedure: 1. Staphylococcus aureus—the principal staphylococcal test micro-organism used in these studies was Staphylococcus aureus ATCC 29213. This strain is the one recommended for QC/QA purposes in Minimum Inhibitory Concentration (MIC) assays by the US Clinical and Laboratory Standards Institute (formerly the NCCLS), an FDA-recognised body. […] The staphylococci and enterococci were cultured and maintained on Mueller-Hinton Medium (agar and broth) at pH 7.2; they were incubated aerobically at 37° C. for 24 hours. This assay, normally carried out after an MIC assay, determines the minimum concentration of a compound that is lethal to the micro-organism being tested. […] These samples were then individually sub-cultured on non-selective agar medium, under the incubation conditions described above. Following incubation they were examined visually for bacterial growth.

[6] = system: S. aureus ATCC 29213; assay: Disc diffusion assay (DDA); type: cell-based, Staphylococcus aureus; conditions: Table 1, zone diameter, 200 μg per disc (thymoquinone 50 μg)
From the text: 1. Staphylococcus aureus—the principal staphylococcal test micro-organism used in these studies was Staphylococcus aureus ATCC 29213. This strain is the one recommended for QC/QA purposes in Minimum Inhibitory Concentration (MIC) assays by the US Clinical and Laboratory Standards Institute (formerly the NCCLS), an FDA-recognised body. S. aureus ATCC 29213 is susceptible to beta-lactam antibiotics such as methicillin and to many other antibiotics in clinical use worldwide today. The staphylococci and enterococci were cultured and maintained on Mueller-Hinton Medium (agar and broth) at pH 7.2; they were incubated aerobically at 37° C. for 24 hours. A sterile paper disc was impregnated with a sample of the test compound and a minimum of 30 minutes allowed for the solvents to evaporate as far as possible. The disc was then placed on an agar plate onto which the test micro-organism had been inoculated. The plate was then incubated under the conditions described above, following which it was examined visually for signs of bacterial growth. If the test compound had antimicrobial activity, a circular zone of no growth would be obtained around the disc. The diameter of this zone of “inhibition” was measured using a ProtoCOL™ automated zone sizer (Synbiosis, Cambridge, UK). In general, a greater diameter and/or area of the zone of inhibition indicates a greater antimicrobial activity in the relevant test compound, although other factors such as test compound mobility through the agar gel may also influence the result. […] The exceptions were the thymoquinone assays, in which only 50 μg of the benzoquinone was used.

[7] = system: S. aureus ATCC 29213; assay: Synergy disc diffusion assay (SDDA); type: cell-based, Staphylococcus aureus; conditions: for SDDA area increase / SDDA increase: quinone + BP; for SDDA area increase: over larger single-compound zone; for SDDA increase: over larger single-compound zone diameter; for SDDA with BP: quinone combined with BP on one disc, 200 μg of each (thymoquinone 50 μg)
From the text: 1. Staphylococcus aureus—the principal staphylococcal test micro-organism used in these studies was Staphylococcus aureus ATCC 29213. This strain is the one recommended for QC/QA purposes in Minimum Inhibitory Concentration (MIC) assays by the US Clinical and Laboratory Standards Institute (formerly the NCCLS), an FDA-recognised body. S. aureus ATCC 29213 is susceptible to beta-lactam antibiotics such as methicillin and to many other antibiotics in clinical use worldwide today. The staphylococci and enterococci were cultured and maintained on Mueller-Hinton Medium (agar and broth) at pH 7.2; they were incubated aerobically at 37° C. for 24 hours. This is a variation on the DDA method, in which two compounds are tested together for their combined antimicrobial activity. It provides a qualitative indication as to whether the compounds are likely to interact synergistically. Two test compounds A and B were placed on a single paper disc and the above described DDA procedure repeated. An increase in diameter of the zone of inhibition, compared to the greater of the zone diameters for the two compounds individually, was taken to indicate potential antimicrobial synergy. […] The larger the increase in zone size, the greater the likelihood of a synergistic interaction between the two test compounds. Each of the quinones was then subjected, in combination with BP, to the SDDA assay described above. In each case, increases in zone diameter (mm) and area (%) were measured with respect to those observed for the compound showing the larger zone diameters during the previous disc diffusion assays on the individual compounds. […] The exceptions were the thymoquinone assays, in which only 50 μg of the benzoquinone was used.

Q: What does the source list for CC(C)(C)OO [t-butyl hydroperoxide]?
A: DDA [1]: 0.0 mm; SDDA area increase [2]: 188.77%; SDDA increase [2]: 10.49 mm; SDDA with TBHQ [2]: 25.49 mm

Q: Which results are given for [Ca+2].[O-][O-] [calcium peroxide]?
A: DDA [1]: 0.0 mm; SDDA area increase [2]: 544.48%; SDDA increase [2]: 23.08 mm; SDDA with TBHQ [2]: 38.08 mm

Q: What does the source list for Cc1cc(O)c(C(C)C)cc1O [thymohydroquinone, 2-iso-propyl-5-methyl-p-hydroquinone]?
A: MIC [3]: 7.8 µg/mL (≈ 46.9 µM); DDA + blood [4]: 10.27 mm; DDA + lipid [4]: 41.71 mm; DDA + salt [4]: 57.59 mm; MBC [5]: 15.6 µg/mL (≈ 93.9 µM); DDA [6]: 57.62 mm; SDDA area increase [7]: 70.26%; SDDA increase [7]: 17.56 mm; SDDA with BP [7]: 75.18 mm

Q: [Mg+2].[O-][O-] [magnesium peroxide] was tested. Which DDA [1] did it give?
A: 0.0 mm

Q: And the SDDA area increase [2]?
A: 523.33%

Q: And the SDDA increase [2]?
A: 22.45 mm

Q: What about the “SDDA with TBHQ” value [2] of the same molecule?
A: 37.45 mm

Q: Which results are given for Cc1cc(O)ccc1O [2-methyl-p-hydroquinone]?
A: MIC [3]: 15.6 µg/mL (≈ 126 µM); DDA + blood [4]: 18.74 mm; DDA + lipid [4]: 24.68 mm; DDA + salt [4]: 22.49 mm; MBC [5]: 15.6 µg/mL (≈ 126 µM); DDA [6]: 25.70 mm; SDDA area increase [7]: 62.56%; SDDA increase [7]: 7.07 mm; SDDA with BP [7]: 32.77 mm

Q: With [Na+].[Na+].[O-][O-] [sodium peroxide] as the molecule, how does the DDA [1] read?
A: 0.0 mm

Q: What about the SDDA area increase [2] of the same molecule?
A: 128.21%

Q: What about the SDDA increase [2] of the same molecule?
A: 7.66 mm

Q: And the “SDDA with TBHQ” value [2]?
A: 22.66 mm
